Results as given in PubChem BioAssay AID2060891 (Molecular Pharmacology Branch, DTP, NCI, 2025).

System: K98450-129-R-PDC complex spheroid growth, percent test/control
Assay: Anticancer human tumor K98450-129-R-PDC patient-derived colon adenocarcinoma cell line growth inhibition [RAS]
Conditions: for IC50: curve of first compound; for viability, T/C: stronger effect = lower value
Summary of the method: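 Tumour cells grown as complex spheroids with HUVEC endothelial cells and mesenchymal stem cells, treated with RAS pathway inhibitor combinations. Each agent spans half-log steps from near clinical Cmax, or 10 microM where Cmax is unknown.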

[1] = second compound 0.000949 µM, first compound 0.0316 µM
[2] = second compound 0.000949 µM, first compound 0.1 µM
[3] = second compound 0.000949 µM, first compound 0.316 µM
[4] = second compound 0.000949 µM, first compound 1 µM
[5] = second compound 0.000949 µM, first compound 3.16 µM
[6] = second compound 0.000949 µM, first compound 10 µM
[7] = second compound 0.003 µM, first compound 0.0316 µM
[8] = second compound 0.003 µM, first compound 0.1 µM
[9] = second compound 0.003 µM, first compound 0.316 µM
[10] = second compound 0.003 µM, first compound 1 µM
[11] = second compound 0.003 µM, first compound 3.16 µM
[12] = second compound 0.003 µM, first compound 10 µM
[13] = second compound 0.00949 µM, first compound 0.0316 µM
[14] = second compound 0.00949 µM, first compound 0.1 µM
[15] = second compound 0.00949 µM, first compound 0.316 µM
[16] = second compound 0.00949 µM, first compound 1 µM
[17] = second compound 0.00949 µM, first compound 3.16 µM
[18] = second compound 0.00949 µM, first compound 10 µM
[19] = second compound 0.03 µM, first compound 0.0316 µM
[20] = second compound 0.03 µM, first compound 0.1 µM
[21] = second compound 0.03 µM, first compound 0.316 µM
[22] = second compound 0.03 µM, first compound 1 µM
[23] = second compound 0.03 µM, first compound 3.16 µM
[24] = second compound 0.03 µM, first compound 10 µM
[25] = second compound 0.0949 µM, first compound 0.0316 µM
[26] = second compound 0.0949 µM, first compound 0.1 µM
[27] = second compound 0.0949 µM, first compound 0.316 µM
[28] = second compound 0.0949 µM, first compound 1 µM
[29] = second compound 0.0949 µM, first compound 3.16 µM
[30] = second compound 0.0949 µM, first compound 10 µM
[31] = second compound 0.3 µM, first compound 0.0316 µM
[32] = second compound 0.3 µM, first compound 0.1 µM
[33] = second compound 0.3 µM, first compound 0.316 µM
[34] = second compound 0.3 µM, first compound 1 µM
[35] = second compound 0.3 µM, first compound 3.16 µM
[36] = second compound 0.3 µM, first compound 10 µM
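Further: spheroids exposed to agents for seven days before the viability readout.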
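Wherever viability, T/C is given: luminescence used as a proxy for viable cell amount.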

CC(=O)OC12COC1CC(O)C1(C)C(=O)C(O)C3=C(C)C(OC(=O)C(O)C(NC(=O)OC(C)(C)C)c4ccccc4)CC(O)(C(OC(=O)c4ccccc4)C21)C3(C)C (stereo unspecified) + CCn1c(-c2cccnc2C(C)OC)c2c3cc(ccc31)N1CCOC(CC(NC(=O)C(C(C)C)N(C)C(=O)C3(F)CCN(C(=O)C#CC(C)(C)N(C)C)CC3)C(=O)N3CCCC(N3)C(=O)OCC(C)(C)C2)C1
IC50 (second compound 0.000949 µM): 190 nM | IC50 (second compound 0.003 µM): 43.1 nM | IC50 (second compound 0.00949 µM): < 31.6 nM | IC50 (second compound 0.03 µM): < 31.6 nM | IC50 (second compound 0.0949 µM): < 31.6 nM | IC50 (second compound 0.3 µM): < 31.6 nM | viability, T/C [1]: 69.7% | viability, T/C [2]: 66.1% | viability, T/C [3]: 37.2% | viability, T/C [4]: 24.6% | viability, T/C [5]: 25.8% | viability, T/C [6]: 24.8% | viability, T/C [7]: 52.4% | viability, T/C [8]: 43.6% | viability, T/C [9]: 23.8% | viability, T/C [10]: 19.7% | viability, T/C [11]: 21.4% | viability, T/C [12]: 20.1% | viability, T/C [13]: 40.6% | viability, T/C [14]: 25.5% | viability, T/C [15]: 19.9% | viability, T/C [16]: 18.7% | viability, T/C [17]: 19.5% | viability, T/C [18]: 18.1% | viability, T/C [19]: 30.9% | viability, T/C [20]: 28.2% | viability, T/C [21]: 19.2% | viability, T/C [22]: 17.7% | viability, T/C [23]: 19.7% | viability, T/C [24]: 20.4% | viability, T/C [25]: 29.6% | viability, T/C [26]: 26.9% | viability, T/C [27]: 18.9% | viability, T/C [28]: 19% | viability, T/C [29]: 18.8% | viability, T/C [30]: 18.4% | viability, T/C [31]: 29.5% | viability, T/C [32]: 22.7% | viability, T/C [33]: 19.1% | viability, T/C [34]: 16.3% | viability, T/C [35]: 16.9% | viability, T/C [36]: 18.6%

CCN1CCN(Cc2ccc(Nc3ncc(F)c(-c4cc(F)c5nc(C)n(C(C)C)c5c4)n3)nc2)CC1 + CCn1c(-c2cc(N3CCN(C)CC3)cnc2C(C)OC)c2c3cc(ccc31)-c1csc(n1)CC(NC(=O)C1CC1C)C(=O)N1CCCC(N1)C(=O)OCC(C)(C)C2
IC50 (second compound 0.000949 µM): > 1000 nM | IC50 (second compound 0.003 µM): 723 nM | IC50 (second compound 0.00949 µM): 73.2 nM | IC50 (second compound 0.03 µM): 23.7 nM | IC50 (second compound 0.0949 µM): < 3.16 nM | IC50 (second compound 0.3 µM): < 3.16 nM | viability, T/C (second compound 0.000949 µM, first compound 0.00316 µM): 75.8% | viability, T/C (second compound 0.000949 µM, first compound 0.01 µM): 83% | viability, T/C [1]: 90.9% | viability, T/C [2]: 80.8% | viability, T/C [3]: 65.6% | viability, T/C [4]: 65.6% | viability, T/C (second compound 0.003 µM, first compound 0.00316 µM): 95.1% | viability, T/C (second compound 0.003 µM, first compound 0.01 µM): 85.8% | viability, T/C [7]: 72.5% | viability, T/C [8]: 71% | viability, T/C [9]: 54.1% | viability, T/C [10]: 47.6% | viability, T/C (second compound 0.00949 µM, first compound 0.00316 µM): 79.8% | viability, T/C (second compound 0.00949 µM, first compound 0.01 µM): 64.1% | viability, T/C [13]: 59.2% | viability, T/C [14]: 47.7% | viability, T/C [15]: 38.6% | viability, T/C [16]: 33.2% | viability, T/C (second compound 0.03 µM, first compound 0.00316 µM): 49.8% | viability, T/C (second compound 0.03 µM, first compound 0.01 µM): 51.8% | viability, T/C [19]: 49.7% | viability, T/C [20]: 27.2% | viability, T/C [21]: 24.4% | viability, T/C [22]: 25.9% | viability, T/C (second compound 0.0949 µM, first compound 0.00316 µM): 18.8% | viability, T/C (second compound 0.0949 µM, first compound 0.01 µM): 18.5% | viability, T/C [25]: 17.3% | viability, T/C [26]: 14.1% | viability, T/C [27]: 18.4% | viability, T/C [28]: 22.8% | viability, T/C (second compound 0.3 µM, first compound 0.00316 µM): 10.8% | viability, T/C (second compound 0.3 µM, first compound 0.01 µM): 13.6% | viability, T/C [31]: 11.3% | viability, T/C [32]: 12.7% | viability, T/C [33]: 16.3% | viability, T/C [34]: 23.1%

C[C@@H](NC(=O)c1ncnc(N)c1Cl)c1ncc(C(=O)Nc2cc(C(F)(F)F)c(Cl)cn2)s1 + CCn1c(-c2cc(N3CCN(C)CC3)cnc2C(C)OC)c2c3cc(ccc31)-c1csc(n1)CC(NC(=O)C1CC1C)C(=O)N1CCCC(N1)C(=O)OCC(C)(C)C2
IC50 (second compound 0.000949 µM): > 10000 nM | IC50 (second compound 0.003 µM): > 10000 nM | IC50 (second compound 0.00949 µM): > 10000 nM | IC50 (second compound 0.03 µM): > 10000 nM | IC50 (second compound 0.0949 µM): < 31.6 nM | IC50 (second compound 0.3 µM): < 31.6 nM | viability, T/C [1]: 105% | viability, T/C [2]: 103% | viability, T/C [3]: 106% | viability, T/C [4]: 97.2% | viability, T/C [5]: 103% | viability, T/C [6]: 90.5% | viability, T/C [7]: 105% | viability, T/C [8]: 88.8% | viability, T/C [9]: 88.4% | viability, T/C [10]: 90.7% | viability, T/C [11]: 110% | viability, T/C [12]: 77.1% | viability, T/C [13]: 76.1% | viability, T/C [14]: 70.7% | viability, T/C [15]: 81.8% | viability, T/C [16]: 88.8% | viability, T/C [17]: 75.3% | viability, T/C [18]: 62.4% | viability, T/C [19]: 57.7% | viability, T/C [20]: 62.3% | viability, T/C [21]: 74.1% | viability, T/C [22]: 67.3% | viability, T/C [23]: 73.9% | viability, T/C [24]: 51.5% | viability, T/C [25]: 25.3% | viability, T/C [26]: 31.9% | viability, T/C [27]: 37% | viability, T/C [28]: 31.9% | viability, T/C [29]: 37.3% | viability, T/C [30]: 17.8% | viability, T/C [31]: 11.4% | viability, T/C [32]: 14.6% | viability, T/C [33]: 16.4% | viability, T/C [34]: 13.5% | viability, T/C [35]: 16% | viability, T/C [36]: 11%
